Values quoted from earlier work, collected in US20230104487A1, “11-(4-CHLOROPHENYL)-4-(2,3-DIHYDRO-1H-INDOLE-1-CARBONYL)-3,11-DIMETHYL-5,10,DIOXATRICYCLO[7.4.0.0,2,6,]TRIDECA-1,3,6,8-TETRAEN-13-ONE AND DERIVATIVES AS DESTABILIZER OF CRY1 FOR THE TREATMENT OF CIRCADIAN RHYTHM ASSOCIATED DISEASES AND DISORDERS” (KOC UNIVERSITESI, priority 2019, published 2023).

Legend:
REV-ERB = settings: Solt et al., 2012; cited from earlier work
CRYs = settings: Hirota et al., 2012; cited from earlier work
gluconeogenesis = settings: Hirota et al., 2012; cited from earlier work

Structure (SMILES)	effect on REV-ERB's repressor function (REV-ERB)	effect on stability of the CRYs (CRYs)	effect on gluconeogenesis (gluconeogenesis)
CC(C)(C)OC(=O)CN(Cc1ccc(Cl)cc1)Cc1ccc([N+](=O)[O-])s1 [GSK4112]	enhance REV-ERB's repressor function toward Bmal1 transcription	–	–
CS(=O)(=O)N(Cc1ccco1)CC(O)Cn1c2ccccc2c2ccccc21 (stereo not drawn) [KL001]	–	increases stability of the CRYs	suppresses the gluconeogenesis
